Assay results from patent publication US7101537B2, “Tricyclic quinoxaline and quinoline derivatives as a UV filter” (Merck Patentgesellschaft, priority 2001, dated 2006).

Assay: maxima of UV-A and UV-B absorption of quinoxaline derivatives in 2-propanol
Assay type: physicochemical
Details: 1 mg of substance per 100 ml of solvent; for UV-A (400 320 nm) Max. abs.: absorbance at UV-A maximum; for UV-A (400 320 nm) λ[nm]: wavelength of UV-A maximum; for UV-B (280 320 nm) Max. abs.: absorbance at UV-B maximum; for UV-B (280 320 nm) λ[nm]: wavelength of UV-B maximum
Protocol: The measurement was carried out in 2-propanol at a concentration of 1 mg of substance per 100 ml of solvent.

SMILES | UV-A (400 320 nm) Max. abs. | UV-A (400 320 nm) λ[nm] | UV-B (280 320 nm) Max. abs. | UV-B (280 320 nm) λ[nm]
FC(F)(F)c1cc(-c2nc3nc4ccccc4nc3[nH]2)cc(C(F)(F)F)c1 | 0.7037 | 358.0 nm | – | –
c1ccc(-c2cc3nc4ccccc4nc3[nH]2)cc1 | 0.7158 | 367.0 nm | 0.8710 | 268.0 nm
CC(=O)c1ccc(-n2c(-c3ccccc3)cc3nc4ccccc4nc32)cc1 | 0.4067 | 359.0 nm | – | –
CC(=O)c1ccc(-n2c([SiH2]C(C)C)cc3nc4ccccc4nc32)cc1 | 0.5774 | 403.0 nm | 0.4246 | 318.0 nm
c1ccc2nc3[nH]ccc3nc2c1 | 0.5381 | 338.0 nm | – | –
O=C(O)c1ccc(-n2c(-c3ccccc3)cc3nc4ccccc4nc32)cc1 | 0.3685 | 358.0 nm | – | –

Now from value to compound, other results behind:

UV-A (400 320 nm) Max. abs. | UV-A (400 320 nm) λ[nm] | SMILES | UV-B (280 320 nm) Max. abs. | UV-B (280 320 nm) λ[nm]
0.6290 | 330.0 nm | CC(C)(C)c1nc2nc3ccccc3nc2[nH]1 | – | –
0.5227 | 328.0 nm | c1ccc2nc3[nH]cnc3nc2c1 | – | –
0.4875 | 327.5 nm | FC(F)(F)c1nc2nc3ccccc3nc2[nH]1 | – | –
0.5824 | 327.5 nm | Cc1nc2nc3ccccc3nc2[nH]1 | – | –
